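Tested at 5 concentrations; 48 h exposure; 96-well plates; endpoints linearly interpolated, else capped at highest concentration. GI50 marks 50% less growth. TGI: concentration producing complete growth inhibition.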
Columns and labels:
Test in all cases: NCI anticancer screen, dose series, 48 h
MOLT-4 leukemia = test system: MOLT-4 leukemia
TK-10 renal = test system: TK-10 renal
IGROV1 ovarian = test system: IGROV1 ovarian
HCC-2998 colon = test system: HCC-2998 colon
UACC-257 melanoma = test system: UACC-257 melanoma
UACC-62 melanoma = test system: UACC-62 melanoma
SR leukemia = test system: SR leukemia
MDA-MB-231 breast = test system: MDA-MB-231 breast
COLO 205 colon = test system: COLO 205 colon
SNB-75 CNS = test system: SNB-75 CNS
OVCAR-5 ovarian = test system: OVCAR-5 ovarian

Compound | TGI (MOLT-4 leukemia) | TGI (TK-10 renal) | TGI (IGROV1 ovarian) | TGI (HCC-2998 colon) | TGI (UACC-257 melanoma) | TGI (UACC-62 melanoma) | TGI (SR leukemia) | TGI (MDA-MB-231 breast) | TGI (COLO 205 colon) | TGI (SNB-75 CNS) | TGI (OVCAR-5 ovarian) | GI50 (TK-10 renal)
Cc1cc(N(CCC#N)CCC#N)ccc1/C(N=Nc1ccc(C(=O)O)cc1)=N\NC(=O)c1ccccc1 | > 100 µM | > 100 µM | > 100 µM | > 100 µM | > 100 µM | > 100 µM | > 100 µM | > 100 µM | > 100 µM | > 100 µM | > 100 µM | –
Cc1cnc2c(c1)C(=O)N(c1ccc(Oc3ccccc3)cc1)S2(=O)=O | > 100 µM | > 100 µM | > 100 µM | > 100 µM | > 100 µM | > 100 µM | > 100 µM | > 100 µM | > 100 µM | > 100 µM | > 100 µM | –
CCOP(=O)(OCC)/C(=C/n1c(=S)[nH]c2ccccc21)C(=O)OC | > 100 µM | > 100 µM | > 100 µM | > 100 µM | > 100 µM | > 100 µM | > 100 µM | > 100 µM | > 100 µM | > 100 µM | > 100 µM | > 100 µM
N#Cc1c(/C=C/c2ccccc2)c2c([nH]c1=S)CCCCC2 | > 100 µM | > 100 µM | > 100 µM | > 100 µM | > 100 µM | – | > 100 µM | > 100 µM | > 100 µM | > 100 µM | > 100 µM | –
CCC[N+](C)(C)CCCNC(=O)c1c(O)c2ccccc2[nH]c1=O | > 100 µM | > 100 µM | > 100 µM | > 100 µM | > 100 µM | > 100 µM | > 100 µM | > 100 µM | > 100 µM | > 100 µM | > 100 µM | –
N=C1C=CC(=C(c2ccc(N)cc2)c2ccc(N)cc2)C=C1 | 42.1 µM | 28.1 µM | 31.5 µM | 18.6 µM | 18.1 µM | 15.3 µM | > 64.9 µM | 32.5 µM | 5.83 µM | 11.5 µM | 50.3 µM | –
COC(=O)/C1=C/C=C\C[C@@]2(C)CC(c3ccoc3)OC(=O)[C@@H]2CC[C@H]1C (some centres undefined) | > 25 µM | > 25 µM | > 25 µM | > 25 µM | > 25 µM | > 25 µM | > 25 µM | > 25 µM | > 25 µM | > 25 µM | > 25 µM | –
CC(C)(C)OC(=O)N1C(=O)C2CCCC21 (centres undefined) | > 100 µM | – | > 100 µM | > 100 µM | > 100 µM | > 100 µM | > 100 µM | > 100 µM | > 100 µM | > 100 µM | > 100 µM | –
C[Si](C)(C)OC1(C#N)c2ccccc2CCCC12CCCC2 (centres undefined) | 61.7 µM | > 100 µM | > 100 µM | 44 µM | 58.3 µM | > 100 µM | > 100 µM | > 100 µM | > 100 µM | > 100 µM | > 100 µM | –
C=CC(=O)N1C/C(=C\c2ccc(OC)cc2)C(=O)/C(=C/c2ccc(OC)cc2)C1 | > 27.8 µM | > 36.1 µM | > 21.4 µM | 2.87 µM | > 31.6 µM | 4.37 µM | > 100 µM | 7.98 µM | 9.99 µM | 27.3 µM | 16.2 µM | –
COCC(C#N)NC1CC(OC2CC(O)(C(=O)CO)Cc3c(O)c4c(c(O)c32)C(=O)c2c(OC)cccc2C4=O)OC(C)C1O (centres undefined) | 0.0471 µM | 2.42 µM | 0.582 µM | 0.471 µM | 0.368 µM | 0.21 µM | 0.15 µM | 0.729 µM | 0.471 µM | 0.373 µM | 2.54 µM | –
CCOC(=O)Cc1[nH]c(C(=O)c2ccccc2)cc1C(=O)c1ccccc1 | 85.7 µM | > 100 µM | > 10 µM | > 100 µM | > 10 µM | > 100 µM | > 100 µM | > 10 µM | 48.7 µM | > 100 µM | > 10 µM | –
COc1ccc(C2N(c3ccc(C)c(N=C=O)c3)C(=O)N3C(c4ccc(OC)cc4)N(c4ccc(C)c(N=C=O)c4)C(=O)N23)cc1 (centres undefined) | > 100 µM | > 100 µM | > 100 µM | > 100 µM | > 100 µM | – | > 100 µM | > 100 µM | > 100 µM | > 100 µM | > 100 µM | –
COC(=O)NC(Cc1ccccc1)NC(=O)OC(C)(C)C (centres undefined) | > 100 µM | > 100 µM | > 100 µM | > 100 µM | > 100 µM | > 100 µM | > 100 µM | > 100 µM | > 100 µM | > 100 µM | > 100 µM | –
CC1(C)CC(=O)c2c(N)n[nH]c2C1 | > 100 µM | – | > 100 µM | > 100 µM | > 100 µM | > 100 µM | > 100 µM | > 100 µM | > 100 µM | > 100 µM | > 100 µM | –
Clc1nc2nc(N3CCNCC3)nc(N3CCCC3)c2[nH]1 | 43.1 µM | > 100 µM | 32.7 µM | 29.5 µM | 37.1 µM | 31.8 µM | 38.7 µM | 31.8 µM | 31 µM | 36 µM | 44.3 µM | –
COc1cc2nc(-c3cccs3)nc(Nc3ccccc3C(=O)NN)c2cc1OC | > 100 µM | > 100 µM | > 100 µM | > 100 µM | > 100 µM | > 100 µM | > 100 µM | > 100 µM | > 100 µM | > 100 µM | > 100 µM | –

From PubChem BioAssay (NCI)
